Assay results as given in patent US9675596B2, “1,2,4-thiazolidin-3-one derivatives and their use in the treatment of cancer” (Baltic Bio AB, priority 2009, dated 2017).

Columns and labels:
PC-3 cells = experiment: Cell proliferation assay (BrdU incorporation); format: cell-based; details: Homo sapiens, serum-free, 0.6 μM, relative to vehicle control (1 unit), 18 h + 6 h BrdU, read-out: Units of BrdU incorporation
Description: PC-3 cancer cell lines were propagated in D-MEM (Gibco 21885) supplemented with 10% Foetal calf serum. 15000 cells per well were seeded in 96 well plates and incubated overnight. The culture media was changed to serum-free D-MEM for 24 h. The culture media was then changed to serum free D-MEM containing either 0.2% DMSO as vehicle control or 0.3, 0.6, 1.2 or 2.5 μM (or 1.25, 2.5, 5, 10 μM (as indicated in Table 1 below)) of the selected compounds of Example 1 to Example 8 in 0.2% DMSO in quadruplicate. After 18 h incubation, BrdU was added according to manufacturer's recommendations. After 6 h incubation in the presence of BrdU, the culture media was removed and BrdU incorporation was measured using “Cell Proliferation ELISA, BrdU colorimetric” Roche (11647229001) according to manufacturer's recommendations.
Proliferation rate of PC-3 cells are reduced by relevant concentrations of the test compounds as measured by BrdU incorporation.

PP2C-α1 = target: T1, PP2C-α1 (Homo sapiens, UniProt P35813); experiment: Dephosphorylation of PP2C assay (PP2C-α1 mediated dephosphorylation of AMPK trimer); format: biochemical; details: 2.5, 5 and 10 μM; AMPK trimer α1/β1/γ1, 20 min, 30° C.
T1 construct: purchased Abcam (PP2C-α1); Invitrogen (AMPK trimer) Ab51205; PV4672
T1 sequence (P35813 1-382): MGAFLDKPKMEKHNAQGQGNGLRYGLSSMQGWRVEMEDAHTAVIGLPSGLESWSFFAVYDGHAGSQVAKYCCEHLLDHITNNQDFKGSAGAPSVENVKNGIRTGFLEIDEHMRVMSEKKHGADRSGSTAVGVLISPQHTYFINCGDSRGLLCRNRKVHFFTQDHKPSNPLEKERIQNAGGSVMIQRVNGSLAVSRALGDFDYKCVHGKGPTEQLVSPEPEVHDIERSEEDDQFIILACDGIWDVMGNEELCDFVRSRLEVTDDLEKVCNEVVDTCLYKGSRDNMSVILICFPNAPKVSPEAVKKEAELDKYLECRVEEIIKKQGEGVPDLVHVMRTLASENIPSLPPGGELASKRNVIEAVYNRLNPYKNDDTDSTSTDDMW
Description: The compounds were tested in the assay at concentrations of 2.5, 5 and 10 μM (as depicted in the figure).
Hyperphosphosporylated AMPK trimer 10 (ng) (α1/β1/γ1) from Invitrogen (PV4672) was incubated in a buffer containing: 40 mM Hepes pH 7.45, 2 mM MnCl2, 0.5 mM DTT and 0.125 ng recombinant PP2C-α1 (Abcam Ab51205) in the presence or absence of potential inhibitors of the interaction/enzymatic reaction in at total volume of 10 μL for 20 minutes in 30° C. The reaction was terminated by addition of 40 μL stop solution containing 1% Bovine Serum Albumin (BSA), 10 mM EDTA and anti Phospho-AMPKα (Thr172) Antibody (cell signaling #2531) at a dilution of 1/1000. The samples were transferred to glutathione coated 96 well plated (Pierce #15140) and incubated O/N at +4° C. The plate was washed 3×200 μL in PBS/0.05% Triton X-100. The plate was incubated with PBS/1% BSA and horse radish peroxidase conjugated goat-anti rabbit antibody (Jackson immunoresearch Laboratories Inc. #111-035-003) at a dilution of 1/10 000 for 2 h in room temperature. The plate was washed 3×200 μL in PBS/0.05% Triton X-100. The assay was developed by addition of 100 μL Liquid Substrate System for ELISA (Sigma, T0440) for 5-30 min. The developing reaction was terminated by addition of 25 μL […]. Absorbance was measured at 450 nm, where absorbance correlates to amount p-T172 AMPK.

AMPK = experiment: Activation of AMPK: Western blot of AMPK (Thr172) phosphorylation in PC3 cells; format: cell-based, human; details: PC3 cells starved 24 h serum-free; 0.3, 0.6, 1.2 and 2.5 μM for 4 h
Description: After starvation of PC3 cells in serum-free medium for 24 h, 0.3, 0.6, 1.2 and 2.5 μM of the compound of Example 1 or the compound of Example 2c was added and incubated for an additional 4 h. The Figure provides representative immunoblots of AMPK phosphorylation by the compound of Example 1 or the compound of Example 2c.
After starvation of PC3 cells in serum-free medium for 16 h, 1 and 5 μM of the selected compounds were added and incubated for an additional 4 h. The Figure provides representative immunoblots of the total level of AMPK (Pan-AMPK) and the level of AMPK and acetyl-CoA carboxylase phosphorylation by the selected compounds of the examples. The selected compounds of the examples stimulate AMPK phosphorylation in PC3 cells and induce the phosphorylation of acetyl-CoA carboxylase.
Selected compounds of Examples 1, 4 to 6 and 8 were prepared. A stock solution of […] was prepared by dissolving the compound in 100% DMSO.
Human PC3 cells were purchased from LGC Promochem-ATCC (ATCC catalog no CRL-1435). […]
PC3 cells were lysed in buffer (100 mM TRIS pH 6.8, 2% w/v Sodium dodecylsulfate (SDS), 10 mM NaF, 10 mM 3-glycerophosphate, 1 mM Na Vanadate). […] Protein concentrations of the lysates were measured using a BCA protein assay kit (Pierce #23225). […]

Structure (SMILES)	activity at 0.6 µM (PC-3 cells)	PP2C-α1 mediated dephosphorylation of AMPK (FIG. 3) (PP2C-α1)	AMPK phosphorylation (immunoblot, FIG. 1) (AMPK)
O=c1[nH]s/c(=N\c2ccc(Cl)c(Cl)c2)n1Cc1cccc(C(F)(F)F)c1 [Example 1, 5-(3,4-dichlorophenyl)imino-4-[[3-(trifluoromethyl)phenyl]methyl]-1,2,4-thiadiazolidin-3-one]	39%	reduce PP2C-α1 mediated dephosphorylation of AMPK	stimulates AMPK phosphorylation
O=c1[nH]s/c(=N\c2ccc(Cl)c(Cl)c2)n1Cc1ccc(F)c(F)c1 [Example 2c, 5-(3,4-dichlorophenyl)imino-4-[(3,4-difluorophenyl)methyl]-1,2,4-thiadiazolidin-3-one]	34%	reduce PP2C-α1 mediated dephosphorylation of AMPK	stimulates AMPK phosphorylation
